Source: article PMC5486603, “Toward molecular imaging of the free fatty acid receptor 1” (Acta Diabetologica, 2017)
Entries after “also recorded” stand apart in the source; their conditions may differ. One block for each compound: values may come before it.

Columns and labels:
mouse GPR40 receptor = biological target: mouse GPR40 receptor; set-up: method as in data on file, AstraZeneca; details: mouse GPR40 overexpressing HEK293 cells, IP-One Tb HTRF; ref data on file, AstraZeneca; cited from earlier work
[1] = set-up: method as in NCT01609582; details: oral dosing of 50 mg daily, individuals with Type 2 diabetes with cardiovascular risk factors, phase 3; ref NCT01609582; cited from earlier work
FFAR1 [2] = biological target: T1, FFAR1 (Rattus norvegicus, UniProt Q8K3T4); experiment: In vitro radioligand binding in INS-1 xenograft tissue homogenate; details: for off-target (non-displaceable) binding: 2 nM [3H]AZ1 or [3H]AZ2, 4 nM [3H]TAK-875, 10 µM unlabeled ligand for non-specific binding; for specific bound radiolabeled ligand (FFAR1 density): 2 nM radiolabeled ligand
T1 construct: 50–100 mg INS-1 xenografts were homogenized using a Polytron tissue homogenizer; from tissue; host or cells: INS-1 (rat insulinoma) xenograft tumours grown subcutaneously in Balbc nu/nu mice, homogenate
T1 sequence (Q8K3T4 whole entry): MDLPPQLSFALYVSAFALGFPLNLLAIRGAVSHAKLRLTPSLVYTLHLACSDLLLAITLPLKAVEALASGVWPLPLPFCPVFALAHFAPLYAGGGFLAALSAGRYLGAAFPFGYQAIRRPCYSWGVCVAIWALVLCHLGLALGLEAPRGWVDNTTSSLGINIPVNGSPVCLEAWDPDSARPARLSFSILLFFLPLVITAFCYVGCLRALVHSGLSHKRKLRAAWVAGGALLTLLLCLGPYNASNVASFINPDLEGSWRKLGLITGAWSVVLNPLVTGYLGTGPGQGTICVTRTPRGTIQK
Experimental: Rat insulinoma cell line INS-1 xenografts, explanted from immunodeficient mice postmortem, were used as a model of beta cells. Briefly, approximately 2 million INS-1 cells were injected subcutaneously in the right flank of Balbc nu/nu mice. Tumor growth was monitored by palpation, and when tumor diameter was 10 mm, the animals were euthanized and the INS-1 tumor explanted.
(§1) Isolated endocrine (75–95% islet purity) and exocrine tissues were homogenized in ice-cold 0.32 M sucrose by hand using a Dounce glass homogenizer to a final concentration of 6 mg/ml. 50–100 mg INS-1 xenografts were homogenized using a Polytron tissue homogenizer (Polytron® PT 3000, Kinematica AG, Littau-Luzern, Switzerland) in ice-cold 0.32 M sucrose at a concentration of 6 mg/ml and then by hand using a Dounce glass homogenizer. Protein concentration was determined using Bio-Rad Protein Assay (Bio-Rad Laboratories, Hercules, CA) with bovine serum albumin as standard. Aliquots of the homogenates were stored at −80 °C until used.
(§2) One milligram of homogenized endocrine and exocrine tissue and 2 mg insulinoma tissue was incubated for 2 h at room temperature with 2 nM [^3H]AZ1 or 2 nM [^3H]AZ2 and PBS in a final incubation volume of 1 ml. Two milligram insulinoma tissue was incubated for 2 h at room temperature with 4 nM [^3H]TAK-875 and 50 mM TRIS (pH 7.4) in a final incubation volume of 1 ml. All three ligands were dissolved in ethanol. 10 µM of unlabeled AZ1 or TAK-875 was added for determination of non-specific binding. The samples were filtered using a Brandel M-48 cell harvester with Whatman GF/C filter (presoaked with PBS or 50 mM TRIS) and washed four times with 3 ml PBS or 50 mM TRIS (room temperature). Filters were put into scintillation vials, dried for 30 min before adding 10 ml Ultima Gold scintillation fluid (Perkin Elmer, Waltham, MA). The filters were shaken for 60 min and then counted in a β-counter (Packard Scintillator Tri-Carb 2100TR). The K d and B max values for [^3H]AZ1 binding were determined using concentrations of the tritiated ligand from 1 to 20 nM. All assay concentrations were replicated in triplicate, both total binding and non-specific binding.
(§3) The specific binding for each concentration of radiolabeled ligand was calculated by subtracting the non-specific binding (average of three replicates) from the total binding (average of three replicates), and expressed as fmol or pmol/mg protein. The specific binding data were analyzed with curve-fitting software (GraphPad Prism version 5.04) to obtain K d and B max values.

FFAR1 [3] = biological target: T2, FFAR1 (Homo sapiens, UniProt O14842); experiment: In vitro radioligand binding and saturation binding in human exocrine pancreatic tissue homogenate; set-up: Isolated endocrine (75–95% islet purity) and exocrine tissues were homogenized in ice-cold 0.32 M sucrose; from tissue; host or cells: human exocrine pancreatic tissue, homogenate; details: for receptor specific binding: human pancreatic exocrine tissue, 2 nM labeled ligand
T2 sequence (O14842 whole entry): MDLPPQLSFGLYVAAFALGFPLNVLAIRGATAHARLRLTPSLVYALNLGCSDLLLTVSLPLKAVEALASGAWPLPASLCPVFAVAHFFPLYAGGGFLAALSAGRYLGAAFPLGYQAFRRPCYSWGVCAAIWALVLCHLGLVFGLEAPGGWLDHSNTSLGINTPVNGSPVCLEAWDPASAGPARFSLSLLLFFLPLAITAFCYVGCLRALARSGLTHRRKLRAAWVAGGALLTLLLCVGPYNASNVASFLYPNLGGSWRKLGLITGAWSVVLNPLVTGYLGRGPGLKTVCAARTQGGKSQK
Experimental: (§4) Isolated pancreatic islets and exocrine tissue were obtained within the Nordic network for Clinical Islet Transplantation laboratory in Uppsala, Sweden. The use of human tissue was approved by the Uppsala Ethical Review Board (#2011/473, #Ups 02-577).
as §1, §2, §3

FFAR1 [4] = biological target: T2, FFAR1; experiment: In vitro radioligand binding and saturation binding in human islets of Langerhans homogenate; set-up: Isolated endocrine (75–95% islet purity) and exocrine tissues were homogenized in ice-cold 0.32 M sucrose; from tissue; host or cells: human isolated pancreatic islets (75–95% purity), homogenate; details: for islet-to-exocrine ratio: human islets vs human exocrine tissue; for FFAR1 density by specific binding: isolated human islets of Langerhans
Experimental: as §4, §1, §2, §3

[5] = human exocrine tissue, representative saturation binding experiment (Fig. 5b)
[6] = human islets, representative saturation binding experiment (Fig. 5a)

SMILES: Cc1cc(OCCCS(C)(=O)=O)cc(C)c1-c1cccc(COc2ccc3c(c2)OC[C@H]3CC(=O)O)c1 [TAK-875, fasiglifam]
- EC50 (mouse GPR40 receptor): > 37500 nM
- side effects [1]: suspected hepatic toxic side effects

- off-target (non-displaceable) binding (FFAR1 [2]): decreased; also recorded: least
- specific bound radiolabeled ligand (FFAR1 density) (FFAR1 [2]): 132 fmol/mg protein
- specific binding (FFAR1 [2]; incubation dose 2 nM): approximately 50%
- Bmax (FFAR1 [3]; [5]): 15.8 pmol/mg protein
- Kd (FFAR1 [3]; [5]): 26.4 nM
- Kd (FFAR1 [3]; human exocrine tissue, saturation binding 1 to 20 nM, n = 5, mean ± SEM): 19.7 ± 8.4 nM
- B max (FFAR1 [3]; human exocrine tissue, saturation binding, n = 5, mean ± SEM): 13.6 ± 2.5 pmol/mg protein
- receptor specific binding (FFAR1 [3]): below 1000 fmol/mg protein
- higher FFAR1 binding in human islets compared to human exocrine tissue (FFAR1 [4]; 2 nM labeled ligand): 30%
- non-specific binding in different pancreatic compartments (FFAR1 [4]; human islets vs exocrine tissue): little difference
- islet-to-exocrine ratio (FFAR1 [4]; 2 nM labeled ligand): 1.3
- Bmax (FFAR1 [4]; [6]): 6.3 pmol/mg protein
- Kd (FFAR1 [4]; [6]): 15.8 nM
- Kd (FFAR1 [4]; human islets, saturation binding 1 to 20 nM, n = 3, mean ± SEM): 10.6 ± 1.5 nM
- B max (FFAR1 [4]; human islets, saturation binding, n = 3, mean ± SEM): 7.0 ± 2.0 pmol/mg protein
- FFAR1 density by specific binding (FFAR1 [4]; 2 nM labeled ligand): approximately 1150 fmol/mg protein
SMILES: [3H]c1cc([3H])c(OCc2nc(-n3cc(C)cn3)nc(N3CCOCC3)c2[3H])cc1F [[^3H]AZ1]

- off-target (non-displaceable) binding (FFAR1 [2]): decreased
- specific bound radiolabeled ligand (FFAR1 density) (FFAR1 [2]): 177 fmol/mg protein
- receptor specific binding (FFAR1 [3]): below 1000 fmol/mg protein
- islet-to-exocrine ratio (FFAR1 [4]; 2 nM labeled ligand): 1.65
- FFAR1 density by specific binding (FFAR1 [4]; 2 nM labeled ligand): approximately 1600 fmol/mg protein
SMILES: [3H]c1cc([3H])c(OCc2nc(-n3cc(C)cn3)nc(N3CCOCC3)c2[3H])cc1Cl [[^3H]AZ2]

- measurement of FFAR1 density (FFAR1 [2]; 4 nM [3H]TAK-875): severely underestimated
SMILES: [3H]c1cc2c(c([3H])c1OCc1cccc(-c3c(C)cc(OCCCS(C)(=O)=O)c([3H])c3C)c1)OC[C@H]2CC(=O)O [[^3H]TAK-875, reference compound]
- off-target (non-displaceable) binding (FFAR1 [2]): high non-specific off-target binding; also recorded: most off-target binding
